We go through one compound from article PMC8634879, “Design, Synthesis, and Biological Evaluation of Pyrano[2,3-c]-pyrazole–Based RalA Inhibitors Against Hepatocellular Carcinoma” (Frontiers in Chemistry, 2021).

Common to all, as to format: cell-based
One experiment addresses T1, RalA (Homo sapiens, UniProt P11233).
T1 construct: expressed in transfected cells; host or cells: HepG2 (from b6; the methods paragraph names no cell line)
T1 sequence (P11233 1-203 limits assumed): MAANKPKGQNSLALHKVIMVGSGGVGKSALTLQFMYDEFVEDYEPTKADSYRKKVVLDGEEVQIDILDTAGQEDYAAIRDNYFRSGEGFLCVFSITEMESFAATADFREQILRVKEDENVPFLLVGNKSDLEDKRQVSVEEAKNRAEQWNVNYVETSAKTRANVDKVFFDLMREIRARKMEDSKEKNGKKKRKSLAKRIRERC
In words: GST pulldown of activated RalA. Here is the method: GST pulldown assays were performed to assess 4p RalA/B inhibitory capacities. […] Only activated RalA was suppressed after incubation with 0.5 μM of compound 4p (Figure 5A).
(§1) The in vitro RalA/B bioactivity assays were performed following methods outlined in previous reports. ([Yan et al., 2016]; [Zhang et al., 2018]; [Walsh et al., 2019]; [Bum-Erdene et al., 2020]). In brief, the lysates of the test compound or vehicle-treated cells were cleared using cold centrifugation, and supernatants were collected. An RalBP1 solution was added to 96-well plates and incubated for 1–2 h, and then the plates were washed thrice using ELISA buffer. Next, cellular lysates were added, and samples were incubated overnight at 4°C. Then, ice-cold mouse anti-FLAG antibody was added, and samples were incubated for one more hour. After subsequent washing with ELISA buffer thrice, the HRP-conjugated anti-mouse antibody was added, and samples were incubated for another hour. Then, the HRP substrate was added. Antigen–antibody reactions were quenched by the addition of sulfuric acid (2 mol/L). Remaining RalA/B was detected by the OD450 values which were collected by using a plate reader. Cell proliferation assays, colony formation assays, apoptosis assays, GST pulldown, and Western blotting were used following methods outlined in our previous reports. ([Zhou et al., 2015]; [Zhang et al., 2016]; [Yang et al., 2017]; [He et al., 2019]). Autophagy levels and protein immunoblotting were used following the methods mentioned in our previous reports ([Pan et al., 2018]; [Wang et al., 2018]; [Hao et al., 2019]; [Wang et al., 2019]; [Peng et al., 2020]). Detailed experimental procedures are described in supporting materials.

Another experiment relates to Hep3B cells. The experiment can be described thus: Cell proliferation assay (MTT), Hep3B. The conditions noted are these: Homo sapiens, average of at least three independent replicates ± SD, read-out: Anti-proliferative activities (IC50, μM) Hep3B. Here is the method: (§2) The antibodies recognizing LC3, p62/SQSTM1, RalA, RalB, and GAPDH were purchased from Proteintech (Wuhan, China). HCC cell lines, including HepG2, Hep3B, Huh-7, and SMMC-7721, were obtained from the Chinese Center for Type Culture Collection (Wuhan, China) and cultured in DMEM (Dulbecco’s modified Eagle’s medium) with 10% FBS (fetal bovine serum) and streptomycin. Cytotoxicity assays were performed by using the MTT method as previously described.
as §1

Another experiment concerns SMMC-7721 cells. The experiment can be described thus: Cell proliferation assay (MTT), SMMC-7721. Particulars: Homo sapiens, average of at least three independent replicates ± SD, read-out: Anti-proliferative activities (IC50, μM) SMMC-7721. As to the method: as §2, §1

For the compound `COc1ccc(S(=O)(=O)NC2=C(C#N)C(c3ccc(C(F)(F)F)cc3)c3c(C)nn(-c4ccccc4)c3O2)cc1` (centres unmarked) [4p, N-(5-cyano-3-methyl-1-phenyl-4-(4-(trifluoromethyl)phenyl)-1,4-dihydropyrano[2,3-c]-pyrazol-6-yl)-4-methoxybenzenesulfonamide], the “activated RalA protein expression level” value on RalA (0.5 μM, only activated RalA, not RalB) is on record as “suppressed”; at RalA (2.0 μM) it was “significantly suppressed”. Besides, on RalA (GST pulldown experiment), the “total RalA expression” value was “unchanged”. The 50% inhibitory concentration (IC50) – broadly, the concentration that inhibits the measured activity by half – in the experiment on Hep3B cells is 2.71 ± 0.27 µM; in the experiment on SMMC-7721 cells it was 5.38 ± 0.37 µM.
